Assay [1] has as its target Human M3 receptor membranes (Homo sapiens (Human), UniProt P20309). Nature of the assay: M3 Receptor radioligand binding assay. The note with it: M3 Receptor radioligand binding assay; read-out: M3 IC50 activity. On the procedure: M3 Receptor Radioligand Binding Assay:
The assay is carried out in 96-well polypropylene plates in a volume of 250 μl. […] The final assay concentration of DMSO is 0.5% (v/v). The plates are sealed and incubated for 2 h at room temperature on an orbital shaker (slow speed). Membranes are harvested onto 96-well unifilter GF/C filter plates pre-treated with 0.5% polyethyleneimine (v/v), using a filter manifold, washed four times with 200 μl of assay buffer. The plates are dried before addition of 50 μl of microscint-0, sealed then read in a Trilux Microbeta scintillation counter. IC50 values are determined from competition curves using a non-linear curve fitting program. Ki values are calculated from IC50 values by the Cheng and Prusoff equation.

Assay [2] deals with Human recombinant PDE4B2 (Homo sapiens (Human), UniProt Q07343). Nature of the assay: PDE4B2 HTRF assay. The note with it: read-out: PDE4B2 IC50 activity. It counts as biochemical. Here is the method:
PDE4B2 activity is detected using the LANCE Ultra cAMP homogeneous time resolved fluorescence resonance energy transfer (TR-FRET) assay from Perkin Elmer. The assay is based on the competition between the europium (Eu) chelate-labeled cAMP tracer and sample cAMP for binding sites on cAMP-specific monoclonal antibodies (mAb) labelled with the ULight™ dye. The assay is carried out in 384-well low volume plates in a volume of 10 μl. Human recombinant PDE4B2 (80 pM) is incubated for 2 h with 3 nM cAMP in buffer containing 1×HBSS, 5 mM HEPES, 3 mM MgCl2, 0.1% BSA, pH 7.4 with or without test compounds. The enzymatic reactions are efficiently stopped by the addition of 500 μM IBMX present in the combined Stop/Detection buffer containing europium (Eu) chelate-labeled cAMP tracer and cAMP-specific monoclonal antibodies (mAb) labelled with the ULight™ dye. […] IC50 values are determined from competition curves using a non-linear curve fitting program.

Like-named read-outs stand apart in the source and are kept apart here.

In patent publication US9636336B2, “Aminoester derivatives” (CHIESI FARMACEUTICI S.p.A., priority 2015, dated 2017) one finds IC50 data, which are given here for eight compounds.

Human recombinant PDE4B2, sequence (Q07343 other isoform, or with tags, fused parts or gaps): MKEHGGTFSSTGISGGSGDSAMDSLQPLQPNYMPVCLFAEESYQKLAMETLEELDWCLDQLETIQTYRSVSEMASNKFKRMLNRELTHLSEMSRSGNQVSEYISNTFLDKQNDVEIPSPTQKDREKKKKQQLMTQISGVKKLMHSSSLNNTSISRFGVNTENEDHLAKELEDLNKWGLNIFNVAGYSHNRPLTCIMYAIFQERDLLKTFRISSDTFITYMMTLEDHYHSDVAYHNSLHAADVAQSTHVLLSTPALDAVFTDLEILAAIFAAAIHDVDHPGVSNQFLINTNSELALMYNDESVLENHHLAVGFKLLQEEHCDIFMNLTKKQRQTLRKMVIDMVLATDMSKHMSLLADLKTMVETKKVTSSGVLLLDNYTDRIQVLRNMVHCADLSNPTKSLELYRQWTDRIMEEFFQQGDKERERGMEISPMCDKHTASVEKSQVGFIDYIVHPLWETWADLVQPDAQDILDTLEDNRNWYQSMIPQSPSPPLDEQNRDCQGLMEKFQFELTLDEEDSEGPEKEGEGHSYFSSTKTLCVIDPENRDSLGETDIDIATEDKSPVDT
Human M3 receptor membranes, sequence (P20309 whole entry): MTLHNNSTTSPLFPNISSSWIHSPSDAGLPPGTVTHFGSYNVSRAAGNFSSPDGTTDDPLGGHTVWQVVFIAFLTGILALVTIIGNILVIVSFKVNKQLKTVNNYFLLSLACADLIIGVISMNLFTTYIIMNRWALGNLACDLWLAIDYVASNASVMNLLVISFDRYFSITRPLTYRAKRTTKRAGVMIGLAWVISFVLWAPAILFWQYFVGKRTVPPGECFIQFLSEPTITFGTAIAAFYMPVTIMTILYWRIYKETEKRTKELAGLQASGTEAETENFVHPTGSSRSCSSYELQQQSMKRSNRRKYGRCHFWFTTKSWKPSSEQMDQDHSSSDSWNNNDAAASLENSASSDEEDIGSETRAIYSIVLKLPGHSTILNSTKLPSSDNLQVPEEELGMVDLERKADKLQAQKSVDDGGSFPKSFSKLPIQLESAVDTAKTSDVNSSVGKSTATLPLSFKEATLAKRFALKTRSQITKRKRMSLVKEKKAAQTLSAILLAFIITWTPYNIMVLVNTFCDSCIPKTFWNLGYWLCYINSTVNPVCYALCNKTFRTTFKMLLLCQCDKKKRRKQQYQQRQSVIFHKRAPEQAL

A word on the IC50: it is the point on the concentration scale where inhibition reaches its midpoint. For the compound `COc1ccc([C@H](Cc2c(Cl)c[n+]([O-])cc2Cl)OC(=O)c2ccc(CNC(C(=O)OCC3CCN(C)CC3)C3CCCCC3)s2)cc1OC` (stereo partly drawn) [Example 9, [(1S)-2-(3,5-dichloro-1-oxido-pyridin-1-ium-4-yl)-1-(3,4-dimethoxyphenyl)ethyl]5-[[[1-cyclohexyl-2-[(1-methyl-4-piperidyl)methoxy]-2-oxo-ethyl]amino]methyl]thiophene-2-carboxylate], the IC50 fell in the range of 10 to 100 nM in assay [1] and 1 to 10 nM in assay [2].

As to `COc1ccc([C@H](Cc2c(Cl)c[n+]([O-])cc2Cl)OC(=O)c2ccc(CNC(C(=O)OC[C@@H]3CCCN(C)C3)c3ccccc3)s2)cc1OC` (stereo partly drawn) [Example 14, [(1S)-2-(3,5-dichloro-1-oxido-pyridin-1-ium-4-yl)-1-(3,4-dimethoxyphenyl)ethyl]5-[[[2-[[(3R)-1-methyl-3-piperidyl]methoxy]-2-oxo-1-phenyl-ethyl]amino]methyl]thiophene-2-carboxylate], the IC50 in assay [1] and in assay [2] (PDE4B2 HTRF assay) was 1 to 10 nM in each case.

For `COc1ccc([C@H](Cc2c(Cl)c[n+]([O-])cc2Cl)OC(=O)c2ccc(CNC(C(=O)OC[C@@H]3CCN(C)C3)c3ccccc3)s2)cc1OC` (stereo partly drawn) [Example 17, [(1S)-2-(3,5-dichloro-1-oxido-pyridin-1-ium-4-yl)-1-(3,4-dimethoxyphenyl)ethyl] 5-[[[2-[[(3R)-1-methylpyrrolidin-3-yl]methoxy]-2-oxo-1-phenyl-ethyl]amino]methyl]thiophene-2-carboxylate], the IC50 in assay [1] and in assay [2] (PDE4B2 HTRF assay) was 1 to 10 nM throughout.

Regarding `COc1ccc([C@H](Cc2c(Cl)c[n+]([O-])cc2Cl)OC(=O)c2ccc(CNC(C(=O)OC[C@H]3CCN(C)C3)c3ccccc3)s2)cc1OC` (stereo partly drawn) [Example 18, [(1S)-2-(3,5-dichloro-1-oxido-pyridin-1-ium-4-yl)-1-(3,4-dimethoxyphenyl)ethyl] 5-[[[2-[[(3S)-1-methylpyrrolidin-3-yl]methoxy]-2-oxo-1-phenyl-ethyl]amino]methyl]thiophene-2-carboxylate], the IC50 in assay [1] and in assay [2] (PDE4B2 HTRF assay) was 1 to 10 nM each time.

For the compound `COc1ccc([C@H](Cc2c(Cl)c[n+]([O-])cc2Cl)OC(=O)c2ccc(CNC(C(=O)OCC3CN(C)C3)c3ccccc3)s2)cc1OC` (stereo partly drawn) [Example 25, [(1S)-2-(3,5-dichloro-1-oxido-pyridin-1-ium-4-yl)-1-(3,4-dimethoxyphenyl)ethyl] 5-[[[2-[(1-methylazetidin-3-yl)methoxy]-2-oxo-1-phenyl-ethyl]amino]methyl]thiophene-2-carboxylate], the IC50 in assay [1] and in assay [2] (PDE4B2 HTRF assay) was 1 to 10 nM each time.

In the case of `COc1ccc([C@H](Cc2c(Cl)c[n+]([O-])cc2Cl)OC(=O)c2ccc(CNC(C(=O)OC[C@H]3CN(C)CCN3C)c3ccccc3)s2)cc1OC` (stereo partly drawn) [Example 29, [(1S)-2-(3,5-dichloro-1-oxido-pyridin-1-ium-4-yl)-1-(3,4-dimethoxyphenyl)ethyl] 5-[[[2-[[(2R)-1,4-dimethylpiperazin-2-yl]methoxy]-2-oxo-1-phenyl-ethyl]amino]methyl]thiophene-2-carboxylate], the 50% inhibitory concentration (IC50) in assay [1] lay within 10 to 100 nM; in assay [2] (PDE4B2 HTRF assay), 1 to 10 nM.

Regarding `COc1ccc([C@H](Cc2c(Cl)c[n+]([O-])cc2Cl)OC(=O)c2ccc(CNC(C(=O)OCC3CCCCN3C)c3ccccc3)s2)cc1OC` (stereo partly drawn) [Example 31, [(1S)-2-(3,5-dichloro-1-oxido-pyridin-1-ium-4-yl)-1-(3,4-dimethoxyphenyl)ethyl] 5-[[[2-[(1-methyl-2-piperidyl)methoxy]-2-oxo-1-phenyl-ethyl]amino]methyl]thiophene-2-carboxylate], the IC50 in assay [1] fell in the range of 10 to 100 nM; in assay [2] (PDE4B2 HTRF assay), 1 to 10 nM.

On to `COc1ccc([C@H](Cc2c(Cl)c[n+]([O-])cc2Cl)OC(=O)c2ccc(CNC(C(=O)OC[C@@H]3CN(C)CCN3C)c3ccccc3)s2)cc1OC` (stereo partly drawn) [Example 32, [(1S)-2-(3,5-dichloro-1-oxido-pyridin-1-ium-4-yl)-1-(3,4-dimethoxyphenyl)ethyl] 5-[[[2-[[(2S)-1,4-dimethylpiperazin-2-yl]methoxy]-2-oxo-1-phenyl-ethyl]amino]methyl]thiophene-2-carboxylate], for which the IC50 in assay [1] was 10 to 100 nM; in assay [2] (PDE4B2 HTRF assay), 1 to 10 nM.
